Experimental findings from ChEMBL document CHEMBL5120839, “Design, synthesis and antibacterial activity of novel pleuromutilin derivatives with thieno[2,3-d]pyrimidine substitution” (Eur J Med Chem, 2022) are described below.

Structures are written as SMILES. Values after ≈ are worked out from the molar mass of the structure shown. Bounds are passed on as bounds.

The subject of the first series is Staphylococcus aureus. The experiment in a line: Bactericidal activity against Staphylococcus aureus assessed as bacterial killing at 1 to 4 times MIC incubated up to 24 hrs by time kill assay. It is filed as functional.
Conditions: not given
As for `C=C[C@]1(C)C[C@@H](OC(=O)CSc2nc(NCCO)c3ccsc3n2)[C@]2(C)[C@H](C)CC[C@]3(CCC(=O)[C@H]32)[C@@H](C)[C@@H]1O`, the Activity was found to be 99.9%.

In a further series the test system is L02. The experiment in a line: Cytotoxicity against human L02 cells assessed as cell viability incubated for 16 hrs by MTT assay. It is filed as toxicity, cell-based. To be noted: l02, 16 h. A general note: Tetrazolium dyes change colour on reduction, which living cells bring about.
Take `C=C[C@]1(C)C[C@@H](OC(=O)CSc2nc(NCCO)c3ccsc3n2)[C@]2(C)[C@H](C)CC[C@]3(CCC(=O)[C@H]32)[C@@H](C)[C@@H]1O`: the Activity entry was “Non-Toxic”.

For a further series, the system named is Escherichia coli. The experiment in a line: Antibacterial activity against Escherichia coli assessed as bacterial growth by measuring optical density at 1 to 2 times MIC incubated for 12 hrs by real time growth curve analysis. It is filed as functional.
Conditions: not given
For `C=C[C@]1(C)C[C@@H](OC(=O)CSc2nc(NCCO)c3ccsc3n2)[C@]2(C)[C@H](C)CC[C@]3(CCC(=O)[C@H]32)[C@@H](C)[C@@H]1O`, the OD is listed as 0.1.
With `C=C[C@]1(C)C[C@@H](OC(=O)CSc2nc(N3CCNCC3)c3ccsc3n2)[C@]2(C)[C@H](C)CC[C@]3(CCC(=O)[C@H]32)[C@@H](C)[C@@H]1O`, the OD is 0.1.

Another series has as its system Streptococcus agalactiae. As to the kind of experiment: Antibacterial activity against Streptococcus agalactiae assessed as inhibition of bacterial growth incubated for 24 hrs by microbroth two-fold dilution method. It is filed as functional.
Conditions: not given
(In general: Broth dilution looks for growth in wells or tubes with falling amounts of substance.)
What is called MIC is the least concentration at which growth counts as inhibited. On to `C=C[C@]1(C)C[C@@H](OC(=O)CSc2nc(NCCO)c3ccsc3n2)[C@]2(C)[C@H](C)CC[C@]3(CCC(=O)[C@H]32)[C@@H](C)[C@@H]1O`, for which the MIC came to 1.9 ng/mL (≈ 0.00323 µM).
For `C=C[C@]1(C)C[C@@H](OC(=O)CSc2nc(N3CCNCC3)c3ccsc3n2)[C@]2(C)[C@H](C)CC[C@]3(CCC(=O)[C@H]32)[C@@H](C)[C@@H]1O`, the MIC stood at 15.3 ng/mL (≈ 0.025 µM).

Another series deals with Streptococcus agalactiae. The experiment in a line: Antibacterial activity against Streptococcus agalactiae assessed as bacterial growth by measuring optical density at 1 to 2 times MIC incubated for 12 hrs by real time growth curve analysis.
Conditions: not given
The format is functional.
As to `C=C[C@]1(C)C[C@@H](OC(=O)CSc2nc(NCCO)c3ccsc3n2)[C@]2(C)[C@H](C)CC[C@]3(CCC(=O)[C@H]32)[C@@H](C)[C@@H]1O`, the OD was determined as 0.1.
As for `C=C[C@]1(C)C[C@@H](OC(=O)CSc2nc(N3CCNCC3)c3ccsc3n2)[C@]2(C)[C@H](C)CC[C@]3(CCC(=O)[C@H]32)[C@@H](C)[C@@H]1O`, the OD amounted to 0.1.

The next series relates to Staphylococcus aureus. The experiment in a line: Antibacterial activity against Staphylococcus aureus assessed as diameter of the inhibition circle at 1 mg/ml incubated for 48 hrs. The format is functional.
Conditions: not given
For `C=C[C@]1(C)C[C@@H](OC(=O)CSc2nc(NCCO)c3ccsc3n2)[C@]2(C)[C@H](C)CC[C@]3(CCC(=O)[C@H]32)[C@@H](C)[C@@H]1O`, the inhibition zone diameter is 33 mm.
`C=C[C@]1(C)C[C@@H](OC(=O)CSc2nc(N3CCNCC3)c3ccsc3n2)[C@]2(C)[C@H](C)CC[C@]3(CCC(=O)[C@H]32)[C@@H](C)[C@@H]1O`: the inhibition zone diameter came out at 26.8 mm.

The next series concerns Staphylococcus aureus. The experiment in a line: Antibacterial activity against Staphylococcus aureus assessed as inhibition of bacterial growth incubated for 24 hrs by microbroth two-fold dilution method. The format is functional.
Conditions: not given
In the case of `C=C[C@]1(C)C[C@@H](OC(=O)CSc2nc(NCCO)c3ccsc3n2)[C@]2(C)[C@H](C)CC[C@]3(CCC(=O)[C@H]32)[C@@H](C)[C@@H]1O`, the MIC was 1.9 ng/mL (≈ 0.00323 µM).
As to `C=C[C@]1(C)C[C@@H](OC(=O)CSc2nc(N3CCNCC3)c3ccsc3n2)[C@]2(C)[C@H](C)CC[C@]3(CCC(=O)[C@H]32)[C@@H](C)[C@@H]1O`, the MIC came to 7.6 ng/mL (≈ 0.0124 µM).

For the next series, the system named is Staphylococcus aureus. As to the kind of experiment: Antibacterial activity against Staphylococcus aureus assessed as bacterial growth by measuring optical density incubated for 12 hrs by real time growth curve analysis. It is filed as functional.
Conditions: not given
`C=C[C@]1(C)C[C@@H](OC(=O)CSc2nc(NCCO)c3ccsc3n2)[C@]2(C)[C@H](C)CC[C@]3(CCC(=O)[C@H]32)[C@@H](C)[C@@H]1O`: the OD is listed as below 0.2.
`C=C[C@]1(C)C[C@@H](OC(=O)CSc2nc(N3CCNCC3)c3ccsc3n2)[C@]2(C)[C@H](C)CC[C@]3(CCC(=O)[C@H]32)[C@@H](C)[C@@H]1O`: the OD is below 0.3.

The subject of another series is Streptococcus agalactiae. The experiment in a line: Antibacterial activity against Streptococcus agalactiae assessed as bacterial growth by measuring optical density at 0.5 times MIC incubated for 12 hrs by real time growth curve analysis. The format is functional.
Conditions: not given
`C=C[C@]1(C)C[C@@H](OC(=O)CSc2nc(NCCO)c3ccsc3n2)[C@]2(C)[C@H](C)CC[C@]3(CCC(=O)[C@H]32)[C@@H](C)[C@@H]1O`: the OD is reported as below 0.3.
The same measure, in the same setting: with `C=C[C@]1(C)C[C@@H](OC(=O)CSc2nc(N3CCNCC3)c3ccsc3n2)[C@]2(C)[C@H](C)CC[C@]3(CCC(=O)[C@H]32)[C@@H](C)[C@@H]1O` the figure was below 0.3.

For a further series, the system named is Escherichia coli. As to the kind of experiment: Antibacterial activity against Escherichia coli assessed as bacterial growth by measuring optical density at 0.5 times MIC incubated for 12 hrs by real time growth curve analysis.
Conditions: not given
The format is functional.
With `C=C[C@]1(C)C[C@@H](OC(=O)CSc2nc(NCCO)c3ccsc3n2)[C@]2(C)[C@H](C)CC[C@]3(CCC(=O)[C@H]32)[C@@H](C)[C@@H]1O`, the OD is on record as below 0.3.
Consider `C=C[C@]1(C)C[C@@H](OC(=O)CSc2nc(N3CCNCC3)c3ccsc3n2)[C@]2(C)[C@H](C)CC[C@]3(CCC(=O)[C@H]32)[C@@H](C)[C@@H]1O`, for which the OD was below 0.3.

Another series has as its system Staphylococcus aureus. The experiment in a line: Antibacterial activity against Methicillin-resistant Staphylococcus aureus BNCC 337371 assessed as inhibition of bacterial growth incubated for 24 hrs by microbroth two-fold dilution method. It is filed as functional.
Conditions: not given
Consider `C=C[C@]1(C)C[C@@H](OC(=O)CSc2nc(NCCO)c3ccsc3n2)[C@]2(C)[C@H](C)CC[C@]3(CCC(=O)[C@H]32)[C@@H](C)[C@@H]1O`, for which the minimum inhibitory concentration (MIC) came to 1.9 ng/mL (≈ 0.00323 µM).
Take `C=C[C@]1(C)C[C@@H](OC(=O)CSc2nc(N3CCNCC3)c3ccsc3n2)[C@]2(C)[C@H](C)CC[C@]3(CCC(=O)[C@H]32)[C@@H](C)[C@@H]1O`: the MIC was found to be 122 ng/mL (≈ 0.199 µM).

For another series, the system named is HEK-293T. The experiment in a line: Cytotoxicity against human HEK293T cells assessed as cell viability incubated for 16 hrs by MTT assay.
Conditions: not given
It is filed as toxicity, cell-based.
For `C=C[C@]1(C)C[C@@H](OC(=O)CSc2nc(NCCO)c3ccsc3n2)[C@]2(C)[C@H](C)CC[C@]3(CCC(=O)[C@H]32)[C@@H](C)[C@@H]1O`, the Activity entry is given as “Non-Toxic”.

Another series relates to Escherichia coli. As to the kind of experiment: Antibacterial activity against Escherichia coli assessed as inhibition of bacterial growth incubated for 24 hrs by microbroth two-fold dilution method. It is filed as functional.
Conditions: not given
For `C=C[C@]1(C)C[C@@H](OC(=O)CSc2nc(NCCO)c3ccsc3n2)[C@]2(C)[C@H](C)CC[C@]3(CCC(=O)[C@H]32)[C@@H](C)[C@@H]1O`, the minimum inhibitory concentration (MIC) came to 7.6 ng/mL (≈ 0.0129 µM).
Take `C=C[C@]1(C)C[C@@H](OC(=O)CSc2nc(N3CCNCC3)c3ccsc3n2)[C@]2(C)[C@H](C)CC[C@]3(CCC(=O)[C@H]32)[C@@H](C)[C@@H]1O`: the MIC was 976 ng/mL (≈ 1.59 µM).
